Experimental findings from patent publication US11352322B2, “Cyclopropyl-amide compounds as dual LSD1/HDAC inhibitors” (Jubilant Epicore LLC, priority 2016, dated 2022) are described below.

SMILES strings stand for the structures. Where a name gives a salt, the structure may show the parent alone. Read-outs that look alike come from different tables or passages of the source. Some results are limits rather than exact numbers.

Data set [1] can be described thus: Metabolic stability in liver microsomes, HLM. The conditions noted are these: 1 μM, NADPH.
Description: (§1) The microsomal suspension was prepared by adding liver microsomes to 100 mM potassium phosphate buffer (pH7.4) to give a final protein concentration of 0.5 mg/mL. The stock solution of NCE (10 mM in DMSO) was added to the microsomes to provide a final concentration of 1 μM. […] Samples were vortexed and centrifuged at 5,000 rpm for 10 min to remove proteins. Supernatant were analyzed on LC-MS/MS.
Another data set concerns the target LSD1 (Homo sapiens (Human), UniProt O60341). Briefly: TR-FRET Assay for LSD1. The following applies: read-out: LSD1 IC50. Background: In TR-FRET formats the signal depends on donor and acceptor labels being close together.
Data set [2] is described as follows: Metabolic stability in liver microsomes, MLM. The following applies: 1 μM, NADPH. In general terms: Liver microsomes are vesicles of endoplasmic reticulum, rich in cytochrome P450 enzymes.
Description: as §1
The next data set concerns MM1S. Briefly: Anticancer activity: Alamar Blue assay, MM1S. The following applies: Homo sapiens, MM1.S, read-out: MM1S EC50. The class given is cell-based. A general note: The colour change of resazurin is a common sign of viable cells or microbes.
Data set [3] deals with HDAC6 human recombinant enzyme (Homo sapiens (Human), UniProt Q9UBN7). Briefly: Histone Deacetylase Assay (BPS Biosciences), HDAC6. The class given is biochemical. From the text: Histone Deacetylase Assay (BPS Biosciences)
HDAC6 human recombinant enzyme, sequence (Q9UBN7 whole entry): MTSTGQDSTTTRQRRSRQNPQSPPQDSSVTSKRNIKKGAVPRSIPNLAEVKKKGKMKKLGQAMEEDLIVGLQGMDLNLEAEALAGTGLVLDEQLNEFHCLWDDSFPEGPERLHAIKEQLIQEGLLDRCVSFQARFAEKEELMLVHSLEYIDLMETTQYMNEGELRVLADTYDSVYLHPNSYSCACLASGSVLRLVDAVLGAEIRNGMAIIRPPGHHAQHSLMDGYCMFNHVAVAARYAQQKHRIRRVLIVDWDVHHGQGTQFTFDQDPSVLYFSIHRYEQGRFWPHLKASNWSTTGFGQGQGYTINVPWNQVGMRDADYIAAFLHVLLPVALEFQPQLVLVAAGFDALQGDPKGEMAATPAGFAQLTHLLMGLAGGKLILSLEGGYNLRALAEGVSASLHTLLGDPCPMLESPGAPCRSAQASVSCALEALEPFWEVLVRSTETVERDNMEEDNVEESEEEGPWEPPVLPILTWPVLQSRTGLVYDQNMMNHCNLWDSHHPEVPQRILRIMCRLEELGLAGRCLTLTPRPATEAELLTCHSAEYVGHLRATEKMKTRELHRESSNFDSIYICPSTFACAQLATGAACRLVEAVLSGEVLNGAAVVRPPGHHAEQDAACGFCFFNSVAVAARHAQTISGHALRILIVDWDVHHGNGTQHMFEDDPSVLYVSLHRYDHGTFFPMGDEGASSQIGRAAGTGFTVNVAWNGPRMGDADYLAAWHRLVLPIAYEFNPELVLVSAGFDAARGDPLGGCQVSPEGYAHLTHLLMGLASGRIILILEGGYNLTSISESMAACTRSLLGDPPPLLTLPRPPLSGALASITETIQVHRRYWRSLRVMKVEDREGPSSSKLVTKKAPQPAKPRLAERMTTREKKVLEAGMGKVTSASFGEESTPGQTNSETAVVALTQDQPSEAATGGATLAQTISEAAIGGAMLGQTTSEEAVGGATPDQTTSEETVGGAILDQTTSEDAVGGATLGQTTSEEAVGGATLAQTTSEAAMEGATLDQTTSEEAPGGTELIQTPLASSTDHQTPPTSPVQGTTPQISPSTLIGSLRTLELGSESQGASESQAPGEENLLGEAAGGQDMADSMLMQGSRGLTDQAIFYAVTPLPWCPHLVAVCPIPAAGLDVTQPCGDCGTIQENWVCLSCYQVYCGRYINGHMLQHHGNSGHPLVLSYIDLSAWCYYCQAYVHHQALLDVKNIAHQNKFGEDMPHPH
Histone deacetylase assay was done as per manufacturer's instructions.

Description for LSD1: TR-FRET Assay for LSD1 (Perkin Elmer)
Tranylcypromine (TCP), LSD1 inhibitor was procured from Selleckchem. […] Stop Solution containing 300 μM tranylcypromine in 1× LANCE Detection Buffer was added to the wells and incubated for 5 min at RT. Then, Detection mix containing 2 nM Eu-Ab and 50 nM ULight-Streptavidin in 1× LANCE Detection Buffer was prepared and added to the reaction mix. This mixture was incubated for 1 hour at room temperature.

One may read the IC50 as the concentration that inhibits the measured activity by half. Consider `O=C(NO)c1ccc(CNC2CC2c2ccccc2)cc1` (stereo not shown) [Example 28, N-hydroxy-4-(((2-phenylcyclopropyl)amino)methyl)benzamide TFA Salt], for which, in data set [1], the “Metabolic stability HLM % remaining in 30 min” value came out at 73%. For the same compound, the IC50 at LSD1 came to 23 nM. Also, in data set [2], the “Metabolic stability MLM % remaining in 30 min” value stood at 35%.
The term EC50 denotes the concentration needed to bring the measured effect to its halfway point. Regarding `CN(CC1CCN(CCCc2ccc(C(=O)NO)cc2)CC1)C1CC1c1ccccc1` (stereo not shown) [Example 45, N-hydroxy-4-(3-(4-((methyl (2-phenylcyclopropyl)amino)methyl)piperidin-1-yl)propyl) benzamide TFA Salt], in the data set with MM1S (MM1S cells), the EC50 was 48 nM. Further, the IC50 on LSD1 worked out at 465 nM.
With `O=C(NO)c1cc2c(s1)CCN(C(=O)CN[C@H]1C[C@@H]1c1ccc(F)cc1)C2` [Example 103B, 5-(2-(((1S,2R)-2-(4-fluorophenyl)cyclopropyl)amino)acetyl)-N-hydroxy-4,5,6,7-tetrahydrothieno[3,2-c]pyridine-2-carboxamide TFA Salt], the EC50 with MM1S turned out to be 15 nM. Further, the IC50 in data set [3] was found to be 36 nM. For the same compound, the “Metabolic stability HLM % remaining in 30 min” value in data set [1] came out at 76%. In data set [2], the “Metabolic stability MLM % remaining in 30 min” value is reported as 73%.
The corresponding values for `O=C(NO)c1ccc2c(c1)CN(C(=O)CNC1CC1c1ccc(F)cc1)CC2` (stereo not shown) [Example 104, 2-(2-((2-(4-fluorophenyl)cyclopropyl)amino)acetyl)-N-hydroxy-1,2,3,4-tetrahydroisoquinoline-7-carboxamide TFA Salt] are 269 nM, 32 nM, 80% and 77%.
For `O=C(NO)c1ccc2c(c1)CN(C(=O)CN[C@H]1C[C@@H]1c1ccc(F)cc1)CC2` [Example 104A, 2-(2-(((1S,2R)-2-(4-fluorophenyl)cyclopropyl)amino)acetyl)-N-hydroxy-1,2,3,4-tetrahydroisoquinoline-7-carboxamide TFA Salt], the EC50 with MM1S is 183 nM. Besides, the IC50 in data set [3] was determined as 53 nM. Besides, the “Metabolic stability HLM % remaining in 30 min” value in data set [1] is given as 74%. In addition, the “Metabolic stability MLM % remaining in 30 min” value in data set [2] came to 68%.
On to `O=C(NO)c1ccc2c(c1)CN(C(=O)CN[C@@H]1C[C@H]1c1ccc(F)cc1)CC2` [Example 104B, 2-(2-(((1R,2S)-2-(4-fluorophenyl)cyclopropyl)amino)acetyl)-N-hydroxy-1,2,3,4-tetrahydroisoquinoline-7-carboxamide TFA Salt], for which, in the data set on MM1S, the concentration giving a half-maximal response (EC50) was 374 nM. Moreover, the IC50 in data set [3] came out at 45 nM. In addition, the “Metabolic stability HLM % remaining in 30 min” value in data set [1] amounted to 74%. In data set [2], the “Metabolic stability MLM % remaining in 30 min” value was found to be 70%.
The corresponding values for `O=C(NO)c1cc2c(s1)CCN(C(=O)CCCNC1CC1c1ccc(F)cc1)C2` (stereo not shown) [Example 105, 5-(4-((2-(4-fluorophenyl)cyclopropyl)amino)butanoyl)-N-hydroxy-4,5,6,7-tetrahydrothieno[3,2-c]pyridine-2-carboxamide TFA Salt] are 13 nM, 18 nM, 77% and 72%.
With `O=C(NO)c1ccc2c(c1)CN(C(=O)CCCNC1CC1c1ccc(F)cc1)CC2` (stereo not shown) [Example 107, 2-(4-((2-(4-fluorophenyl)cyclopropyl)amino)butanoyl)-N-hydroxy-1,2,3,4-tetrahydroisoquinoline-7-carboxamide TFA Salt], the EC50 in the data set on MM1S worked out at 78 nM. The IC50 in data set [3] is 85 nM. Besides, in data set [1], the “Metabolic stability HLM % remaining in 30 min” value is listed as 83%. In data set [2], the “Metabolic stability MLM % remaining in 30 min” value was determined as 67%.
Regarding `O=C(NO)c1ccc(/C=C/C(=O)N2CCC(CNC3CC3c3ccccc3)CC2)cc1` (stereo not shown) [Example 114, (E)-N-hydroxy-4-(3-oxo-3-(4-(((2-phenylcyclopropyl)amino)methyl)piperidin-1-yl)prop-1-en-1-yl)benzamide TFA Salt], the concentration for a half-maximal effect (EC50) with MM1S was determined as 44 nM. Further, the IC50 in data set [3] amounted to 68 nM. Besides, in data set [1], the “Metabolic stability HLM % remaining in 30 min” value turned out to be 83%. In data set [2], the “Metabolic stability MLM % remaining in 30 min” value is 56%.
On to `O=C(NO)c1ccc(/C=C/C(=O)N2CCC(CN[C@@H]3C[C@H]3c3ccccc3)CC2)cc1` [Example 114A, N-hydroxy-4-((E)-3-oxo-3-(4-((((1R,2S)-2-phenylcyclopropyl)amino)methyl)piperidin-1-yl)prop-1-en-1-yl)benzamide TFA Salt], for which the 50% effective concentration (EC50) in the data set on MM1S was 14 nM. Also, in data set [3], the IC50 is 38 nM. For the same compound, in data set [1], the “Metabolic stability HLM % remaining in 30 min” value came out at 67%. Further, the “Metabolic stability MLM % remaining in 30 min” value in data set [2] is reported as 62%.
As to `O=C(NO)c1ccc(/C=C/C(=O)N2CCC(CN[C@H]3C[C@@H]3c3ccccc3)CC2)cc1` [Example 114B, N-hydroxy-4-((E)-3-oxo-3-(4-((((1S,2R)-2-phenylcyclopropyl)amino)methyl)piperidin-1-yl)prop-1-en-1-yl)benzamide TFA Salt], the concentration for a half-maximal effect (EC50) in the data set with MM1S was 97 nM. The IC50 in data set [3] is 33 nM. Moreover, in data set [1], the “Metabolic stability HLM % remaining in 30 min” value came to 73%. Also, the “Metabolic stability MLM % remaining in 30 min” value in data set [2] is on record as 43%.
`Nc1ccccc1NC(=O)c1ccc(CCCn2cnc(CNC3CC3c3ccc(F)c(F)c3)c2)cc1` (stereo not shown) [Example 135, N-(2-aminophenyl)-4-(3-(4-(((2-(3,4-difluorophenyl)cyclopropyl)amino)methyl)-1H-imidazol-1-yl)propyl)benzamide TFA Salt]: the EC50 in the data set on MM1S is 247 nM. In addition, the IC50 in data set [3] was > 10000 nM. Besides, in data set [1], the “Metabolic stability HLM % remaining in 30 min” value is given as 2%. In addition, in data set [2], the “Metabolic stability MLM % remaining in 30 min” value is reported as 8%.
Take `Nc1ccccc1NC(=O)c1cc2c(s1)CCN(C(=O)CNC1CC1c1ccc(F)cc1)C2` (stereo not shown) [Example 151, N-(2-aminophenyl)-5-((2-(4-fluorophenyl)cyclopropyl)glycyl)-4,5,6,7-tetrahydrothieno[3,2-c]pyridine-2-carboxamide TFA Salt]: the EC50 in the data set with MM1S stood at 345 nM. Also, the IC50 in data set [3] is > 10000 nM. The “Metabolic stability HLM % remaining in 30 min” value in data set [1] was determined as 30%. The “Metabolic stability MLM % remaining in 30 min” value in data set [2] amounted to 18%.
Consider `Nc1ccccc1NC(=O)c1ccc2c(c1)CN(C(=O)CNC1CC1c1ccc(F)cc1)CC2` (stereo not shown) [Example 152, N-(2-aminophenyl)-2-(2-((2-(4-fluorophenyl)cyclopropyl)amino)acetyl)-1,2,3,4-tetrahydroisoquinoline-7-carboxamide TFA Salt], for which the EC50 in the data set on MM1S turned out to be 566 nM. Also, the IC50 in data set [3] is > 10000 nM. Also, the “Metabolic stability HLM % remaining in 30 min” value in data set [1] is listed as 36%. Also, in data set [2], the “Metabolic stability MLM % remaining in 30 min” value was 31%.
Regarding `Nc1ccccc1NC(=O)c1ccc(CNC(=O)CNC2CC2c2ccc(F)cc2)cc1` (stereo not shown) [Example 155, N-(2-aminophenyl)-4-((2-((2-(4-fluorophenyl)cyclopropyl)amino)acetamido)methyl)benzamide TFA Salt], the EC50 in the data set with MM1S came out at 42 nM. Besides, in data set [3], the IC50 is > 10000 nM. For the same compound, in data set [1], the “Metabolic stability HLM % remaining in 30 min” value is 46%. Also, the “Metabolic stability MLM % remaining in 30 min” value in data set [2] was determined as 34%.
Take `Nc1ccccc1NC(=O)c1ccc(CNC(=O)N2CCC(CNC3CC3c3ccc(F)cc3)CC2)cc1` (stereo not shown) [Example 158, N-(4-((2-aminophenyl)carbamoyl)benzyl)-4-(((2-(4-fluorophenyl)cyclopropyl)amino)methyl)piperidine-1-carboxamide TFA Salt]: in the data set on MM1S, the EC50 came out at 58 nM. Besides, the half-inhibitory concentration (IC50) in data set [3] was > 10000 nM. Moreover, the “Metabolic stability HLM % remaining in 30 min” value in data set [1] came out at 50%. Further, the “Metabolic stability MLM % remaining in 30 min” value in data set [2] was < 5%.
